Data from patent US7326697B2, “Methods for increasing the therapeutic response to electroconvulsive therapy” (Corcept Therapeutics, Inc., priority 2002, dated 2008).

Experiments:
[1] = in one study; cited from earlier work
[2] = Case: mental illness treated with mifepristone therapy followed by bilateral ECT; format: in vivo; conditions: one patient
Protocol: The patient subsequently underwent four treatments of bilateral ECT while continuing mifepristone therapy. […] During each treatment session, the patient received between 60 and 100 mg of methohexital and between 60 and 80 mg of succinylcholine.
For the first ECT treatment, the patient was delivered a stimulus using the Thymatron ECT device at 35% with […] eeg seizure duration and 115 second motor duration. After the first treatment, the patient was better able to organize their thoughts and was able to engage in more appropriate conversations. The second treatment was also at 35%, but the eeg duration decreased to 61 seconds and no motor seizure was detected. Consequently on the third treatment, the energy setting was increased to 40% with 115 second eeg duration and 91 second motor duration. After the third treatment, the patient had fewer somatic delusions, was able to comprehend written text and was easier to engage in conversation.

SMILES: CC#C[C@]1(O)CC[C@H]2[C@@H]3CCC4=CC(=O)CCC4=C3[C@@H](c3ccc(N(C)C)cc3)C[C@@]21C [mifepristone, (11β, 17β)-11-[4-(dimethylamino)phenyl]-17-hydroxy-17-(1-propynyl)estra-4,9-dien-3-one]
- fraction of the daily dose excreted in the urine [1]: less than 0.5%
- clinical response to ECT while continuing mifepristone therapy ([2]; after four treatments of bilateral ECT, before the fifth): dramatically improved
- clinical response to mifepristone therapy alone ([2]; before ECT): not significantly improving
- side-effects of ECT with continued mifepristone therapy ([2]; four treatments of bilateral ECT): some impairment in short term memory but otherwise had no side-effects
